Measurements taken from PubChem BioAssay (NCI).
Several values for one entry are separate records, joined by “and”; a condition that tells them apart may be missing. Equal values may be shown once.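 Protocol summary: plate cells (96-well), add compound at 5 concentrations, incubate 48 h, interpolate endpoints linearly. Here, GI50 denotes the concentration required for 50% inhibition of growth. TGI is the concentration that stops growth completely.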

Tests used:
Assay in all cases: growth of human tumour cells (NCI), 48 h
[1] = test system: HOP-18 NSCLC
[2] = test system: DLD-1 colon
[3] = test system: HCT-116 colon
[4] = test system: HCC-2998 colon
[5] = test system: SF-268 CNS
[6] = test system: RXF 393 renal
[7] = test system: DMS 114 small cell lung
[8] = test system: MOLT-4 leukemia
[9] = test system: SW-620 colon
[10] = test system: SN12C renal
[11] = test system: DU-145 prostate
[12] = test system: M19-MEL melanoma

Row | SMILES | TGI [1] [µM] | TGI [2] [µM] | TGI [3] | GI50 [4] | TGI [4] | TGI [5] | TGI [6] | TGI [7] [µM] | TGI [8] | TGI [9] | TGI [10] | TGI [11] [µM] | TGI [12] [µM] | GI50 [3] | GI50 [5] | GI50 [9]
1 | COc1cc2c3cc1Oc1c(OC)c(OC)cc4c1C(Cc1ccc(cc1)Oc1cc(ccc1O)CC3N(C)CC2)N(C)CC4 (centres undefined) | > 100 | 54.9 | 21 µM and > 100 µM | 11.7 µM and 2.71 µM | 25 µM and 11.7 µM | 44.6 µM and 24.7 µM | 5.69 µM and 4.03 µM | 24.8 | 30.8 µM and 36.8 µM | 22.6 µM and 45.8 µM | 61.3 µM and 30.6 µM | 24.8 | 24.2 | – | – | –
2 | COC(=O)c1nc(N)nc(C(=O)OC)c1C(=O)c1ccccc1 | > 100 | > 100 | > 100 µM | – | > 100 µM | > 100 µM | > 100 µM | > 100 | > 100 µM | > 100 µM | > 100 µM | – | > 100 | – | – | –
3 | CCOC(=O)/C=C1\Oc2ccccc2C1(C)O (centres undefined) | > 100 | > 100 | > 100 µM | – | > 100 µM | > 100 µM | > 100 µM | > 100 | > 100 µM | > 100 µM | > 100 µM | – | > 100 | – | – | –
4 | c1ccc2c(CN3CCC(C4CCN(Cc5cccc6ccccc56)CC4)CC3)cccc2c1 | > 100 | 26.8 | 21.1 µM and > 58.2 µM | – | 2.97 µM and 5.61 µM | 28.4 µM and > 100 µM | 26.9 µM and 43.3 µM | 6.76 | 26.6 µM and 99.1 µM | 9.17 µM and 40.1 µM | > 100 µM | > 100 | 20.7 | 7.28 µM and 16.3 µM | 8.99 µM and 78.7 µM | 3.02 µM and 11.4 µM
5 | O=C(NC1C=Nc2ccccc2NC1=O)c1ccccc1Cl (centres undefined) | > 100 | > 100 | > 100 µM | – | > 100 µM | > 100 µM | 62.9 µM | > 100 | 54.4 µM | 29 µM | > 100 µM | – | > 100 | – | – | –
6 | COc1cc(/C=C\c2ccc(Cl)cc2)cc(OC)c1OC | > 100 | > 100 | > 100 µM | – | 32.7 µM | > 100 µM | > 100 µM | > 91.8 | 6.87 µM | > 100 µM | > 100 µM | – | > 100 | – | – | –
7 | COc1ccc(/C=N\O[Si](C)(C)C(C)(C)C)cc1O[Si](C)(C)C(C)(C)C | 31.1 | 32.9 | 29.1 µM | – | 32.9 µM | 39.4 µM | 28.4 µM | 35.6 | 36.5 µM | 36.9 µM | 35.1 µM | – | 36.5 | – | – | –
8 | COC(=O)C1=C(c2ccc(Cl)cc2)C(O)N=C(NN)N1 (centres undefined) | > 100 | > 100 | > 100 µM | – | > 100 µM | > 100 µM | > 100 µM | > 100 | > 100 µM | > 100 µM | > 100 µM | – | > 100 | – | – | –
